According to patent US20160060260A1, “BROMODOMAIN INHIBITORS FOR TREATING DISEASE” (Board of Regents, The University of Texas System, priority 2014, published 2016):

molecular target: T1, Recombinant human His-tagged Trim24-PHD-bromodomain (Homo sapiens, UniProt O15164); test: Trim24 AlphaScreen Assay; format: binding; conditions: 5 nM Trim24 protein, 15 nM biotinylated H3K23ac (1-33aa) peptide
T1 construct: Recombinant human His-tagged Trim24-PHD-bromodomain (produced in-house); made in house
T1 sequence (O15164 824-1006 limits assumed): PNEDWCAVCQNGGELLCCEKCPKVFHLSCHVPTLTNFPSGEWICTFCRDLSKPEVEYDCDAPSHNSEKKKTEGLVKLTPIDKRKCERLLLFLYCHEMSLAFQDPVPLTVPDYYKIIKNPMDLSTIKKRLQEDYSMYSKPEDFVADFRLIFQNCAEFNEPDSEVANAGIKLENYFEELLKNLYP
Summary of the method: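 AlphaScreen read-out after 2 h with streptavidin donor and Ni-chelate acceptor beads at 10 ug/mL each, following 1 h room-temperature incubation of compound, His-tagged PHD-bromodomain protein and biotin-H3K23ac (1-33aa) peptide in Hepes pH 7.5 buffer with NaCl and Triton X-100. Signals normalised between no-compound and no-protein wells; IC50 from four-parameter logistic curves.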

| IC50 [nM] | SMILES |
| --- | --- |
| > 1000 | Cn1cnc(S(=O)(=O)Nc2cc3c(cc2Oc2cccc(OCCCC(=O)O)c2)n(C)c(=O)n3C)c1 [Example 227, 4-(3-(1,3-dimethyl-6-(1-methyl-1H-imidazole-4-sulfonamido)-2-oxo-2,3-dihydro-1H-benzo[d]imidazol-5-yloxy)phenoxy)butanoic acid] |
| 100 to 1000 | CC(CO)COc1cccc(Oc2cc3c(cc2NS(=O)(=O)c2cn(C)cn2)n(C)c(=O)n3C)c1 (stereo not drawn) [Example 230, N-(6-(3-(3-hydroxy-2-methylpropoxy)phenoxy)-1,3-dimethyl-2-oxo-2,3-dihydro-1H-benzo[d]imidazol-5-yl)-1-methyl-1H-imidazole-4-sulfonamide] |
| 100 to 1000 | Cn1cnc(S(=O)(=O)Nc2cc3c(cc2Oc2cccc(OCC(C)(O)CO)c2)n(C)c(=O)n3C)c1 (stereo not drawn) [Example 231, N-{6-[3-(2,3-dihydroxy-2-methylpropoxy)phenoxy]-1,3-dimethyl-2-oxo-2,3-dihydro-1H-1,3-benzodiazol-5-yl}-1-methyl-1H-imidazole-4-sulfonamide] |
| 100 to 1000 | COC(C)(CO)COc1cccc(Oc2cc3c(cc2NS(=O)(=O)c2cn(C)cn2)n(C)c(=O)n3C)c1 (stereo not drawn) [Example 232, N-{6-[3-(3-hydroxy-2-methoxy-2-methylpropoxy)phenoxy]-1,3-dimethyl-2-oxo-2,3-dihydro-1H-1,3-benzodiazol-5-yl}-1-methyl-1H-imidazole-4-sulfonamide] |
| 100 to 1000 | COCC(C)(O)COc1cccc(Oc2cc3c(cc2NS(=O)(=O)c2cn(C)cn2)n(C)c(=O)n3C)c1 (stereo not drawn) [Example 233, N-{6-[3-(2-hydroxy-3-methoxy-2-methylpropoxy)phenoxy]-1,3-dimethyl-2-oxo-2,3-dihydro-1H-1,3-benzodiazol-5-yl}-1-methyl-1H-imidazole-4-sulfonamide] |
| > 1000 | Cn1cnc(S(=O)(=O)Nc2cc3c(cc2Oc2cccc(OCC(C)(O)CN)c2)n(C)c(=O)n3C)c1 (stereo not drawn) [Example 234, N-{6-[3-(3-amino-2-hydroxy-2-methylpropoxy)phenoxy]-1,3-dimethyl-2-oxo-2,3-dihydro-1H-1,3-benzodiazol-5-yl}-1-methyl-1H-imidazole-4-sulfonamide] |
| > 1000 | CNCC(C)(O)COc1cccc(Oc2cc3c(cc2NS(=O)(=O)c2cn(C)cn2)n(C)c(=O)n3C)c1 (stereo not drawn) [Example 235, N-(6-{3-[2-hydroxy-2-methyl-3-(methylamino)propoxy]phenoxy}-1,3-dimethyl-2-oxo-2,3-dihydro-1H-1,3-benzodiazol-5-yl)-1-methyl-1H-imidazole-4-sulfonamide] |
| 100 to 1000 | Cn1cnc(S(=O)(=O)Nc2cc3c(cc2Oc2cccc(OCC4(C)CO4)c2)n(C)c(=O)n3C)c1 (stereo not drawn) [Example 236, N-(1,3-dimethyl-6-(3-((2-methyloxiran-2-yl)methoxy)phenoxy)-2-oxo-2,3-dihydro-1H-benzo[d]imidazol-5-yl)-1-methyl-1H-imidazole-4-sulfonamide] |
| 100 to 1000 | Cn1cnc(S(=O)(=O)Nc2cc3c(cc2Oc2cccc(OCC(C)(O)CNCCN)c2)n(C)c(=O)n3C)c1 (stereo not drawn) [Example 237, N-[6-(3-{3-[(2-aminoethyl)amino]-2-hydroxy-2-methylpropoxy}phenoxy)-1,3-dimethyl-2-oxo-2,3-dihydro-1H-1,3-benzodiazol-5-yl]-1-methyl-1H-imidazole-4-sulfonamide] |
| 100 to 1000 | Cn1cnc(S(=O)(=O)Nc2cc3c(cc2Oc2cccc(OCC(C)(C)O)c2)n(C)c(=O)n3C)c1 [Example 238, N-{6-[3-(2-hydroxy-2-methylpropoxy)phenoxy]-1,3-dimethyl-2-oxo-2,3-dihydro-1H-1,3-benzodiazol-5-yl}-1-methyl-1H-imidazole-4-sulfonamide] |
| 100 to 1000 | Cn1cnc(S(=O)(=O)Nc2cc3c(cc2Oc2cccc(OCCCO)c2)n(C)c(=O)n3C)c1 [Example 240, N-(6-(3-(3-hydroxypropoxy)phenoxy)-1,3-dimethyl-2-oxo-2,3-dihydro-1H-benzo[d]imidazol-5-yl)-1-methyl-1H-imidazole-4-sulfonamide] |

More lines, now with the values behind:

| SMILES | IC50 [nM] |
| --- | --- |
| Cc1c(S(=O)(=O)Nc2cc3c(cc2Oc2cc(OCCCCCCN(C)C)cc(OCC(F)(F)F)c2)n(C)c(=O)n3C)cnn1C [Example 215, N-(6-(3-((6-(dimethylamino)hexyl)oxy)-5-(2,2,2-trifluoroethoxy)phenoxy)-1,3-dimethyl-2-oxo-2-3,-dihydro-1H-benzo[d]imidazol-5-yl)-1,5-dimethyl-1H-pyrazole-4-sulfonamide] | 1 to 10 |
| CCCOc1cc(OCCCN)cc(Oc2cc3c(cc2NS(=O)(=O)c2ccc(OC)c(OC)c2)n(C)c(=O)n3C)c1 [Example 216, N-(6-(3-(3-aminopropoxy)-5-propoxyphenoxy)-1,3-dimethyl-2-oxo-2,3-dihydro-1H-benzo[d]imidazol-5-yl)-3,4-dimethoxybenzenesulfonamide] | 10 to 100 |
| CCCOc1cc(OCCCCN(C)C)cc(Oc2cc3c(cc2NS(=O)(=O)c2cnn(C)c2C)n(C)c(=O)n3C)c1 [Example 217, N-(6-(3-(4-(dimethylamino)butoxy)-5-propoxyphenoxy)-1,3-dimethyl-2-oxo-2,3-dihydro-1H-benzo[d]imidazol-5-yl)-1,5-dimethyl-1H-pyrazole-4-sulfonamide] | 10 to 100 |
| CCCOc1cc(OCCCCCCN)cc(Oc2cc3c(cc2NS(=O)(=O)C2CC2)n(C)c(=O)n3C)c1 [Example 218, N-(6-(3-((6-aminohexyl)oxy)-5-propoxyphenoxy)-1,3-dimethyl-2-oxo-2,3-dihydro-1H-benzo[d]imidazol-5-yl)cyclopropanesulfonamide] | 10 to 100 |
| CCCOc1cc(OCCCCCCN(C)C)cc(Oc2cc3c(cc2NS(=O)(=O)c2cnn(C)c2C)n(C)c(=O)n3C)c1 [Example 219, N-(6-(3-((6-(dimethylamino)hexyl)oxy)-5-propoxyphenoxy)-1,3-dimethyl-2-oxo-2,3-dihydro-1H-benzo[d]imidazol-5-yl)-1,5-dimethyl-1H-pyrazole-4-sulfonamide] | 1 to 10 |
| CCCOc1cc(OCCCCCCN)cc(Oc2cc3c(cc2NS(=O)(=O)c2cccc(C(=O)O)c2)n(C)c(=O)n3C)c1 [Example 220, 3-(N-(6-(3-((6-aminohexyl)oxy)-5-propoxyphenoxy)-1,3-dimethyl-2-oxo-2,3-dihydro-1H-benzo[d]imidazol-5-yl)sulfamoyl)benzoic acid] | 100 to 1000 |
| COc1ccc(S(=O)(=O)Nc2cc3c(cc2Oc2cccc(OCC(F)(F)F)c2)n(C)c(=O)n3C)cn1 [Example 221, N-(1,3-dimethyl-2-oxo-6-(3-(2,2,2-trifluoroethoxy)phenoxy)-2,3-dihydro-1H-benzo[d]imidazol-5-yl)-6-methoxypyridine-3-sulfonamide] | 10 to 100 |
| Cc1cc(OCC(C)C)cc(Oc2cc3c(cc2NS(=O)(=O)c2cn(C)cn2)n(C)c(=O)n3C)c1 [Example 222, N-(6-(3-isobutoxy-5-methylphenoxy)-1,3-dimethyl-2-oxo-2,3-dihydro-1H-benzo[d]imidazol-5-yl)-1-methyl-1H-imidazole-4-sulfonamide] | 10 to 100 |
| CC(C)COc1cc(Cl)cc(Oc2cc3c(cc2NS(=O)(=O)c2cn(C)cn2)n(C)c(=O)n3C)c1 [Example 223, N-(6-(3-chloro-5-isobutoxyphenoxy)-1,3-dimethyl-2-oxo-2,3-dihydro-1H-benzo[d]imidazol-5-yl)-1-methyl-1H-imidazole-4-sulfonamide] | 10 to 100 |
| CC(C)COc1cc(F)cc(Oc2cc3c(cc2NS(=O)(=O)c2cn(C)cn2)n(C)c(=O)n3C)c1 [Example 224, N-(6-(3-fluoro-5-isobutoxyphenoxy)-1,3-dimethyl-2-oxo-2,3-dihydro-1H-benzo[d]imidazol-5-yl)-1-methyl-1H-imidazole-4-sulfonamide] | 10 to 100 |
| CCOc1cc(OCC(C)C)cc(Oc2cc3c(cc2NS(=O)(=O)c2cn(C)cn2)n(C)c(=O)n3C)c1 [Example 225, N-(6-(3-ethoxy-5-isobutoxyphenoxy)-1,3-dimethyl-2-oxo-2,3-dihydro-1H-benzo[d]imidazol-5-yl)-1-methyl-1H-imidazole-4-sulfonamide] | 10 to 100 |
| CCc1cc(OCC(C)C)cc(Oc2cc3c(cc2NS(=O)(=O)c2cn(C)cn2)n(C)c(=O)n3C)c1 [Example 226, N-(6-(3-ethyl-5-isobutoxyphenoxy)-1,3-dimethyl-2-oxo-2,3-dihydro-1H-benzo[d]imidazol-5-yl)-1-methyl-1H-imidazole-4-sulfonamide] | 10 to 100 |
| Cn1cnc(S(=O)(=O)Nc2cc3c(cc2Oc2cccc(OCCCCC(=O)O)c2)n(C)c(=O)n3C)c1 [Example 228] | 100 to 1000 |
| Cc1nc(S(=O)(=O)Nc2cc3c(cc2Oc2cccc(OCC4CCNCC4)c2)n(C)c(=O)n3C)cn1C [Example 229, N-(1,3-dimethyl-2-oxo-6-(3-(piperidin-4-ylmethoxy)phenoxy)-2,3-dihydro-1H-benzo[d]imidazol-5-yl)-1,2-dimethyl-1H-imidazole-4-sulfonamide] | 100 to 1000 |
| CC(COC(=O)CNC(=O)OC(C)(C)C)COc1cccc(Oc2cc3c(cc2NS(=O)(=O)c2cn(C)cn2)n(C)c(=O)n3C)c1 (stereo not drawn) [Example 239, 3-(3-{[1,3-dimethyl-6-(1-methyl-1H-imidazole-4-sulfonamido)-2-oxo-2,3-dihydro-1H-1,3-benzodiazol-5-yl]oxy}phenoxy)-2-methylpropyl 2-{[(tert-butoxy)carbonyl]amino}acetate] | 100 to 1000 |
| COc1cc(S(=O)(=O)Nc2cc3c(cc2Oc2cccc(OCC4CC4)c2)n(C)c(=O)n3C)ccc1O [Example 241, N-(6-(3-(cyclopropylmethoxy)phenoxy)-1,3-dimethyl-2-oxo-2,3-dihydro-1H-benzo[d]imidazol-5-yl)-4-hydroxy-3-methoxybenzenesulfonamide] | 10 to 100 |
